*1 amine or outer side, *2 acyl side, *3 side chain or, on linkers, in order; H or OH if unused. Where a SMILES comes first, the peptide text is derived from it. [ ]: non-standard residue; d: D form. The star is where a group is joined. ξ: configuration not given here. NH(1-OH-2-oxopiperidin-3-yl) = O=C1C(N*)CCCN1O; ξOrn(N(OH)Ac) = CC(=O)N(O)CCCC(N)C(=O)O; ξOrn(N(OH)CHO) = NC(CCCN(O)C=O)C(=O)O; ξAsp(βξ-Me) = CC(C(=O)O)C(N)C(=O)O; X2 = C/C=C(/N[*:1])C(=O)[*:2]; X1 = CC(N)C(O)C(C)C(=O)*
Tests used:
D. acidovorans = assay: Growth of D. acidovorans in presence of gold precipitate or AuCl3 (MIC); format: cell-based, Delftia acidovorans
Method: The assay was set up as follows: 50 μL of ddH2O containing 3.2, 1.6, 1.4, 1.2, 1.0, 0.8, 0.6, 0.4, and 0.2 mM delftibactin A was added in quadruplicate to wells within a 96-well plate. A 1.6 mM stock solution of AuCl3 was made and 50 μL was added to each well containing delftibactin A. No-delftibactin A and no-AuCl3 controls containing only water were also added to the 96-well plate in quadruplicate. This was incubated for 30 min at room temperature, during which time 10 mL of an overnight culture of D. acidovorans, grown in ACM was centrifuged and resuspended in 5 mL sterilized ddH2O. After 30 min incubation of AuCl3 with delftibactin, 100 μL of concentrated culture was added to each well. Final concentration of AuCl3 was 400 μM and the final concentrations of delftibactin A were 800, 400, 350, 300, 250, 200, 150, 100, and 50 μM. After 30 minutes of incubation at room temperature, mixtures were serial diluted and plated onto Nutrient Agar plates and incubated at 30° C. Colonies were counted after 24 h of growth. Results are shown as mean±s.d.; n=4. To assess whether D. acidovorans could grow in the presence of the gold precipitate, several milligrams of delftibactin A and AuCl3 were reacted 1:1 overnight and centrifuged, and washed once with water to concentrate the precipitate. The precipitate was resuspended in ddH2O at a final concentration of 100 mM, calculated using a molecular weight of 1227 g/mol, corresponding to a gold-delftibactin A species. D. acidovorans was grown overnight in a 96-well plate in 100 μL of ACM containing 20 μM to 10 mM gold precipitate or AuCl3. […] The MIC of AuCl3 was determined to be roughly 10 μM.

D. acidovorans ΔdelG [1] = assay: Delftibactin-mediated protection against gold toxicity (CFU after acute exposure); format: cell-based, Delftia acidovorans
Method: Cultures of D. acidovorans wild type and D. acidovorans ΔdelG were grown in deferrated ACM for 2 days at 30° C. In 96-well plates, 200 μL of wild type or mutant grown culture were incubated in the presence and absence of 100 μM AuCl3. At the same time, the mutant culture was also complemented with […] delftibactin (biological levels) in the presence of 100 μM AuCl3. After 30 minutes, cultures were serially diluted in water and plated on LB agar to determine the colony forming units of D. acidovorans after gold exposure. Results are shown as mean s.d.; n=4; Two-tailed student's t-test.

[2] = Gold-siderophore reactions (gold nanoparticle formation, gold-iron competition, LC-MS of supernatant); conditions: for gold nanoparticle formation (visual inspection): 10 mM AuCl3 reacted with equimolar chelator; for concentration of metallophore after AuCl3 exposure: LC-MS, 2 hr exposure, vs unreacted control; for reaction with gold after pre-exposure to / in presence of iron: equimolar FeCl3
Method: Ten microliters of the AuCl3 stock solution was aliquoted into separate 200 μL microcentrifuge tubes, followed by the addition of 10 μL of each respective siderophore or metal chelator, where water was used as a control. The reaction was monitored over time and images were taken. After 2 h, a sample of the mixture was diluted 10× and analyzed by transmission electron microscopy (TEM) (see below). The remaining sample was centrifuged at 13,000 rpm for ten minutes. A 10 μL sample of the supernatant was diluted in 90 μL of water and subsequently analyzed by LC-MS. A control of unreacted siderophore and metal chelator of the same concentration was also analyzed for comparison. […] Reactions were monitored similarly. UV-vis spectrums were obtained using a Synergy 4 microplate reader (Biotek).

[3] = Exposure of acidobactin A to gold; conditions: when exposed to gold
[4] = Transmission electron microscopy of delftibactin A:Au(III) complexes; conditions: delftibactin A:AuCl3 2:1, 10 min
Text: Delftibactin A was reacted with AuCl3 with a molar ratio equal to 2:1 for ten minutes. Each separate reaction of delftibactin A with AuCl3 was examined using a Phillips CM-10 transmission electron microscopy operating at 80 kV. The whole-mount sample was absorbed and dried on a formvar-carbon coated 100-square mesh copper grid and rinsed with filter sterilized, de-ionized water to remove any salt precipitates.

[5] = Test strip: metallophore on C18-silica TLC plate developed with gold chloride; conditions: immobilized on C18-silica TLC slide, developed with gold chloride solution
Method: Pictures were taken after 10 min.
A solution containing gold chloride was used to develop the strip. Pictures were taken at the times indicated.

[6] = Method: The gold-delftibactin A interaction was determined through two separate experiments. First, AuCl3 was held constant at 2.5 mM and the interaction with delftibactin A was monitored by measuring the absorption of AuCl3 remaining in solution after precipitation by delftibactin A through comparison with a standard curve. Briefly, 2.5 mM AuCl3 was incubated with 5, 2.5, 1.25, 0.6125, 0.3063, and 0.1531 mM delftibactin A for 1 h. Solutions were filtered with a 0.22 μM Acrodisc (Pall, USA) to remove insoluble delftibactin A-gold precipitate. 100 μl of the filtered reaction was placed in a 96-well plate and the absorbance was read at 300 nm using a SpectraMax 384 Plus (Molecular Devices, USA). Absorption was compared to an AuCl3 standard curve to determine the concentration of AuCl3 remaining in solution. To monitor the amount of delftibactin A remaining in solution after reaction with gold a similar experiment was conducted. Delftibactin A (2.5 mM) was incubated with 5, 2.5, 1.25, 0.6125, 0.3063, and 0.1531 mM AuCl3 for 1 h. Solutions were filtered similar to above. Reaction mixtures were analyzed using a Waters Alliance 2695 RP-HPLC separations module, equipped with a Waters 2998 photodiode array and a Luna 5u C18 column (250×4.60 mm, Phenomenex). The mobile phase was linear from 2% acetonitrile, 98% water+5 mM (NH4)2CO3 at 2 min to 14% acetonitrile at 18 min at a flow rate of 1 mL/min. […]
[7] = TEM imaging of siderophore-gold reactions
Method: Transmission electron microscopy imaging was performed with a JEOL JEM 1299 EX TEMSCAN transmission electron microscope (JEOL, Peabody, Mass., USA) operated at an accelerating voltage of 80 kV. Sample preparation: a 2 μL drop of a diluted (10×) siderophore-gold reaction was deposited over a formvar-coated TEM grid, and was allowed to dry under ambient conditions before being imaged. Gold nanoparticle size distribution was determined using the software, ImageJ.

[8] = Citrate-gold and delftibactin A-gold comparison; conditions: room temperature, neutral pH
Method: Stock 10 mM solutions of sodium citrate and purified delftibactin A were mixed with and equimolar solution of AuCl3 and allowed to react at room temperature in 1.5 mL Eppendorf tubes. Photographs were taken from the initial addition of gold to 1 h exposure. Similarly, TEM experiments were performed by mixing 10 mM stock solutions of AuCl3 and either delftibactin A or sodium citrate 1:1 on a formvar-carbon coated 100-square mesh copper grid, imaging after 10 min AuCl3 exposure.

D. acidovorans ΔdelG [9] = assay: Gold protective comparison of delftibactin A and B (growth curves); format: cell-based, Delftia acidovorans; conditions: 125 μM AuCl3 + 125 μM delftibactin
Method: Twenty microliter reactions were set up as follows: water only, 5 mM AuCl3, 5 mM AuCl3+delftibactin A, and 5 mM AuCl3+delftibactin B. Reactions were initiated with the addition of delftibactin A or B. After 2 h, reactions were serially diluted to 125 μM in ACM containing D. acidovorans ΔdelG diluted 1:1000 from an overnight culture. Optical density was monitored using a TECAN Sunrise™ microplate reader at 600 nm for 36 h. Results are a mean of three growth curves for each condition from a single representative experiment.

[10] = Time course of AuCl3 precipitation by delftibactins in absence and presence of FeCl3
Method: (§1) Twenty microliter reactions were set up as follows: i) water only, ii) 5 mM delftibactin A, iii) 5 mM AuCl3 iv) 5 mM FeCl3 v) 5 mM AuCl3+5 mM FeCl3 vi) 5 mM delftibactin B+5 mM AuCl3 vii) delftibactin B+5 mM AuCl3+5 mM FeCl3 viii) delftibactin B+5 mM FeCl3. Reactions were initiated by the addition of delftibactin and images were taken at time points indicated. After 2 h, reactions were serially diluted to 30 μM final concentration in ACM containing D. acidovorans ΔdelG diluted 1:1000 from an overnight culture. Optical density was monitored using a TECAN Sunrise™ microplate reader at 600 nm for 36 h. Results are a mean of three growth curves for each condition from a single representative experiment. As a second test of delftibactin protective capacity, D. acidovorans ΔdelG cells from an overnight culture were inoculated 1:1000 into 100 μL ACM in a 96-well plate containing 0 or 10 μM AuCl3, and then provided 0 or 100 μM delftibactin. Cultures were grown for 84 h at 250 rpm at 30° C. in a TECAN Sunrise™ microplate reader, measuring at 600 nm to assess growth. Results are a mean of three growth curves for each condition from a single representative experiment.

D. acidovorans ΔdelG [11] = assay: Gold detoxification in chronic exposure by delftibactin A (growth curves); format: cell-based, Delftia acidovorans
Method: as §1

[Cl][Au]([Cl])[Cl] [AuCl3]
concentration at which toxic (D. acidovorans; D. acidovorans): 10 µM
MIC of AuCl3 (D. acidovorans; D. acidovorans grown overnight in ACM, 96-well plate): roughly 10 μM
growth of D. acidovorans (D. acidovorans; overnight in ACM containing 20 μM to 10 mM gold precipitate or AuCl3): No growth
increase in sensitivity to gold toxicity in the ΔdelG strain (D. acidovorans ΔdelG [1]; ΔdelG vs wild-type, 100 μM AuCl3, 30 min exposure, CFUs): 102.8 fold

O=C(O)CN(CCN(CC(=O)O)CC(=O)O)CC(=O)O [EDTA, ethylenediaminetetraacetic acid]
gold nanoparticle formation (visual inspection) [2]: fail to develop a similar effect even after prolonged exposure to gold ions

CC1CC(=O)NC(CCCN(O)C=O)C(O)CC(=O)NC(C(C)O)C(=O)NC(CCCNO)C(=O)NC(CO)C(=O)NC(C(O)C(=O)O)C(=O)O1 (stereo not drawn) [acidobactin A]
gold complexing [3]: shown the gold complexing phenomenon

CC(=O)N(O)CCCC[C@H](NC(=O)CC(O)(CC(=O)N[C@@H](CCCCN(O)C(C)=O)C(=O)O)C(=O)O)C(=O)O [aerobactin]
gold nanoparticle formation (visual inspection) [2]: fail to produce defined gold nanoparticles

c1ccc(-c2ccccn2)nc1 [bipyridyl]
gold nanoparticle formation (visual inspection) [2]: fail to develop a similar effect even after prolonged exposure to gold ions

C/C=C(/NC(=O)CNC(=O)C(C)NC(=O)C(NC(=O)C(C)C(O)C(C)N)C(C)C(=O)O)C(=O)NC(CCCN(O)C=O)C(=O)NC(C)C(=O)NC(CCCNC(=N)N)C(=O)NC1CCCN(O)C1=O (stereo not drawn) [delftibactin A] (X1-[ξAsp(βξ-Me)]AG[X2][ξOrn(N(OH)CHO)]AR-{NH(1-OH-2-oxopiperidin-3-yl)}; configuration not given here)
rescue of ΔdelG strain from gold toxicity (D. acidovorans ΔdelG [1]; exogenous purified delftibactin 30 sM, 100 μM AuCl3, 30 min): rescued
nature of gold precipitate by TEM [4]: abundance of colloidal gold nanoparticles and octahedral gold platelets
darkening of test strip [5]: darkening can be seen
solubility on complexing to gold [6]: abrupt and total loss of solubility
co-precipitation with gold ([6]; 2.5 mM AuCl3, end-point assays): co-precipitate with gold from solution
octahedral gold particle formation ([7]; TEM): also produces octahedral gold particles
gold nanoparticle formation (visual inspection) [2]: rapidly undergo a characteristic blackening
concentration of metallophore after AuCl3 exposure [2]: decreased
reaction with gold after pre-exposure to / in presence of iron [2]: gold reducing power is reduced
timescale of creating gold structures from Au3+ [8]: seconds
detoxification / protection against AuCl3 toxicity (D. acidovorans ΔdelG [9]): more protective against AuCl3 toxicity than delftibactin B
gold precipitation in presence of iron ([10]; equimolar 5 mM AuCl3 + 5 mM FeCl3): gold precipitation would proceed in the presence of high concentrations of iron
toxicity (D. acidovorans ΔdelG [11]): nontoxic
protection from chronic gold toxicity (D. acidovorans ΔdelG [11]; exogenous addition to ΔdelG cultures, 100 μM delftibactin A + 10 μM AuCl3, 84 h): sufficient to overcome chronic gold toxicity

C/C=C(/NC(=O)CNC(=O)C(C)NC(=O)C(NC(=O)C(C)C(O)C(C)N)C(C)C(=O)O)C(=O)NC(CCCN(O)C(C)=O)C(=O)NC(C)C(=O)NC(CCCNC(=N)N)C(=O)NC1CCCN(O)C1=O (stereo not drawn) [delftibactin B] (X1-[ξAsp(βξ-Me)]AG[X2][ξOrn(N(OH)Ac)]AR-{NH(1-OH-2-oxopiperidin-3-yl)}; configuration not given here)
gold nanoparticle formation (visual inspection) [2]: rapidly undergo a characteristic blackening
detoxification / protection against AuCl3 toxicity (D. acidovorans ΔdelG [9]): decreased detoxification
gold reduction efficiency ([10]; 5 mM AuCl3, compared with delftibactin A): less efficient in gold reduction

O=C(N[C@H]1COC(=O)[C@@H](NC(=O)c2cccc(O)c2O)COC(=O)[C@@H](NC(=O)c2cccc(O)c2O)COC1=O)c1cccc(O)c1O [enterobactin]
gold nanoparticle formation (visual inspection) [2]: considerable gold nanoparticle formation
concentration of metallophore after AuCl3 exposure [2]: remained unchanged
reaction with gold after pre-exposure to / in presence of iron [2]: reacts with gold to a similar extent as when iron is not present

CC(C)(C1=N[C@@](C)(C(=O)O)CS1)[C@H](O)[C@@H]1CSC([C@H]2CSC(c3ccccc3O)=N2)N1 (stereo partly drawn) [yersiniabactin, reference compound]
nanoparticles seen by TEM ([7]; after 2 h reaction with AuCl3): did not create any distinct nanoparticles
gold nanoparticle formation (visual inspection) [2]: does not generate substantial quantities of gold nanoparticles

— patent US10174401B2, “Methods for binding and precipitating gold using microbial-derived metallophores and their uses” (McMaster University, priority 2013, dated 2019)
